What was measured:
[1] = system: ABUTH; test: Pre-emergence herbicidal action against ABUTH; type: in vivo, Abutilon theophrasti; details: for Pre-emergence action against ABUTH (herbicidal activity): 80 g/ha, scored visually after 3 weeks vs untreated controls (100% = plants have died, 0% = like control plants); for Pre-emergence action against ABUTH (herbicidal activity in percent): dosage 20 g/ha, scored visually after 3 weeks vs untreated controls, 100% = plants have died, 0% = like control plants
Summary of the method: (§1)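 Pre-emergence soil-surface spray of formulated compound (WP or EC; 600 to 800 l/ha; 0.2% wetting agent) over seeds sown in sandy loam. After 3 weeks under greenhouse conditions, damage is estimated visually in percent against untreated plants.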

[2] = system: ALOMY; test: Pre-emergence herbicidal action against ALOMY; type: in vivo, Alopecurus myosuroides; details: 80 g/ha, pre-emergence, scored visually after 3 weeks vs untreated controls (100% = plants have died, 0% = like control plants)
Summary of the method: as §1

[3] = system: AMARE; test: Pre-emergence herbicidal action against AMARE; type: in vivo, Amaranthus retroflexus
Summary of the method: as §1

[4] = system: AVEFA; test: Pre-emergence herbicidal action against AVEFA; type: in vivo, Avena fatua; details: 80 g/ha, pre-emergence
Summary of the method: as §1

[5] = system: ECHCG; test: Pre-emergence herbicidal action against ECHCG; type: in vivo, Echinochloa crus-galli; details: 80 g/ha
Summary of the method: as §1

[6] = system: LOLRI; test: Pre-emergence herbicidal action against LOLRI; type: in vivo, Lolium rigidum; details: 80 g/ha
Summary of the method: as §1

[7] = system: MATIN; test: Pre-emergence herbicidal action against MATIN; type: in vivo, Matricaria inodora
Summary of the method: as §1

[8] = system: PHBPU; test: Pre-emergence herbicidal action against PHBPU; type: in vivo, Pharbitis purpurea; details: dosage 80 g/ha
Summary of the method: as §1

[9] = system: POLCO; test: Pre-emergence herbicidal action against POLCO; type: in vivo, Polygonum convolvulus; details: dosage 80 g/ha
Summary of the method: as §1

[10] = system: SETVI; test: Pre-emergence herbicidal action against SETVI; type: in vivo, Setaria viridis
Summary of the method: as §1

[11] = system: VIOTR; test: Pre-emergence herbicidal action against VIOTR; type: in vivo, Viola tricolor
Summary of the method: as §1

[12] = system: DIGSA; test: Pre-emergence herbicidal action against DIGSA; type: in vivo, Digitaria sanguinalis
Summary of the method: as §1

[13] = system: ALOMY; test: Post-emergence herbicidal action against ALOMY; type: in vivo, Alopecurus myosuroides; details: visual assessment about 3 weeks after treatment vs untreated controls
Summary of the method: (§2)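 Spray, one-leaf stage: WP or EC compound in water, 600–800 l/ha, 0.2% wetting agent. Plants held about 3 weeks in the greenhouse, then visually rated in percent of kill compared with untreated controls.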

[14] = system: AVEFA; test: Post-emergence herbicidal action against AVEFA; type: in vivo, Avena fatua; details: 20 g/ha, visual assessment about 3 weeks after treatment, 100% = plants have died, 0% = like control plants
Summary of the method: as §2

[15] = system: ECHCG; test: Post-emergence herbicidal action against ECHCG; type: in vivo, Echinochloa crus-galli
Summary of the method: as §2

[16] = system: MATIN; test: Post-emergence herbicidal action against MATIN; type: in vivo, Matricaria inodora
Summary of the method: as §2

[17] = system: PHBPU; test: Post-emergence herbicidal action against PHBPU; type: in vivo, Pharbitis purpurea
Summary of the method: as §2

[18] = system: SETVI; test: Post-emergence herbicidal action against SETVI; type: in vivo, Setaria viridis
Summary of the method: as §2

[19] = system: VIOTR; test: Post-emergence herbicidal action against VIOTR; type: in vivo, Viola tricolor
Summary of the method: as §2

[20] = system: ABUTH; test: Post-emergence herbicidal action against ABUTH; type: in vivo, Abutilon theophrasti; details: visual assessment about 3 weeks after treatment vs untreated controls
Summary of the method: as §2

[21] = system: AMARE; test: Post-emergence herbicidal action against AMARE; type: in vivo, Amaranthus retroflexus; details: 20 g/ha, visual assessment about 3 weeks after treatment, 100% = plants have died, 0% = like control plants
Summary of the method: as §2

[22] = system: DIGSA; test: Post-emergence herbicidal action against DIGSA; type: in vivo, Digitaria sanguinalis
Summary of the method: as §2

[23] = system: VERPE; test: Pre-emergence herbicidal action against VERPE; type: in vivo, Veronica persica; details: dosage 80 g/ha
Summary of the method: as §1

[24] = system: VERPE; test: Post-emergence herbicidal action against VERPE; type: in vivo, Veronica persica; details: 20 g/ha
Summary of the method: as §2

[25] = 20 g/ha, scored visually after 3 weeks vs untreated controls, 100% = plants have died, 0% = like control plants
[26] = 80 g/ha, scored visually after 3 weeks vs untreated controls (100% = plants have died, 0% = like control plants)

| SMILES | Pre-emergence action against ABUTH (herbicidal activity) [1] [%] | Pre-emergence action against ABUTH (herbicidal activity in percent) [1] [%] | Pre-emergence action against ALOMY (herbicidal activity) [2] [%] | Pre-emergence action against AMARE in % [3, 25] [%] | Pre-emergence action against AMARE in % [3, 26] [%] | Pre-emergence action against AVEFA in % [4] [%] | Pre-emergence action against ECHCG in % [5] [%] | Pre-emergence action against LOLRI in % [6] [%] | Pre-emergence action against MATIN in % ([7]; dosage 20 g/ha) [%] | Pre-emergence action against MATIN in % ([7]; dosage 80 g/ha) [%] | Pre-emergence action against PHBPU in % [8] [%] | Pre-emergence action against POLCO in % [9] [%] | Pre-emergence action against SETVI in % ([10]; dosage 80 g/ha) [%] | Pre-emergence action against VIOTR in % ([11]; dosage 80 g/ha) [%] | Post-emergence action against ALOMY in % ([13]; dosage 20 g/ha) [%] | Post-emergence action at 20 g/ha against AVEFA in % [14] [%] | Post-emergence action against MATIN in % ([16]; dosage 20 g/ha) [%] | Post-emergence action against SETVI in % ([18]; dosage 5 g/ha) [%] | Post-emergence action against SETVI in % ([18]; dosage 20 g/ha) [%] | Post-emergence action against VIOTR in % ([19]; 20 g/ha) [%] | also measured |
| --- | --- | --- | --- | --- | --- | --- | --- | --- | --- | --- | --- | --- | --- | --- | --- | --- | --- | --- | --- | --- | --- |
| CCn1nnnc1NC(=O)c1ccc(Br)c(C(=O)NCC(F)F)c1Cl [Example 2-182] | 100 | 100 | 80 | 100 | 100 | 90 | 100 | 80 | 90 | 100 | 90 | 90 | 100 | 100 | 100 | 80 | 90 | 90 | 100 | 100 | Pre-emergence action against SETVI in % ([10]; dosage 20 g/ha): 90%; Pre-emergence action against VIOTR in % ([11]; dosage 20 g/ha): 100%; Pre-emergence action against DIGSA in % ([12]; dosage 20 g/ha): 100%; Pre-emergence action against DIGSA in % ([12]; dosage 80 g/ha): 100%; Post-emergence action against ALOMY in % ([13]; dosage 5 g/ha): 80%; Post-emergence action against ECHCG in % ([15]; dosage 5 g/ha): 90%; Post-emergence action against ECHCG in % ([15]; dosage 20 g/ha): 90%; Post-emergence action against MATIN in % ([16]; dosage 5 g/ha): 90%; Post-emergence action against PHBPU in % ([17]; dosage 5 g/ha): 80%; Post-emergence action against PHBPU in % ([17]; dosage 20 g/ha): 90% |
| CCn1nnnc1NC(=O)c1ccc(I)c(C(=O)NC)c1Cl [Example 2-195] | 100 | 100 | 100 | 100 | 100 | 80 | 80 | 90 | 100 | 100 |  | 80 | 100 | 100 | 100 | 80 | 90 | 90 | 100 | 100 | Pre-emergence action against SETVI in % ([10]; dosage 20 g/ha): 80%; Pre-emergence action against VIOTR in % ([11]; dosage 20 g/ha): 100%; Pre-emergence action against DIGSA in % ([12]; dosage 20 g/ha): 90%; Pre-emergence action against DIGSA in % ([12]; dosage 80 g/ha): 100%; Post-emergence action against ABUTH in % ([20]; dosage 5 g/ha): 100%; Post-emergence action against ABUTH in % ([20]; dosage 20 g/ha): 100%; Post-emergence action against ALOMY in % ([13]; dosage 5 g/ha): 80%; Post-emergence action at 20 g/ha against AMARE in % [21]: 100%; Post-emergence action against MATIN in % ([16]; dosage 5 g/ha): 80%; Post-emergence action against VIOTR in % ([19]; 5 g/ha): 100%; Post-emergence action against DIGSA in % ([22]; 5 g/ha): 80%; Post-emergence action against DIGSA ([22]; 20 g/ha): 90% |
| CSc1c(C(=O)Nc2nnnn2C)ccc(C(F)F)c1C(=O)NCC(F)F [Example 1-92] | 100 | 100 | 90 | 100 | 100 |  | 100 | 90 | 100 | 100 | 90 |  | 100 | 100 | 90 | 90 | 80 | 90 | 100 | 100 | Pre-emergence action against VERPE in % [23]: 100%; Post-emergence action against ABUTH in % ([20]; dosage 5 g/ha): 90%; Post-emergence action against ABUTH in % ([20]; dosage 20 g/ha): 100%; Post-emergence action at 20 g/ha against AMARE in % [21]: 100%; Post-emergence action against ECHCG in % ([15]; dosage 5 g/ha): 100%; Post-emergence action against ECHCG in % ([15]; dosage 20 g/ha): 100%; Post-emergence action against PHBPU in % ([17]; dosage 20 g/ha): 90%; Post-emergence action against VERPE in % [24]: 90% |

From patent US12655116B2, “Substituted isophthalic acid diamides” (Bayer Aktiengesellschaft, priority 2020, dated 2026)
